Measured values from PMC7616177, “From structure to clinic: Design of a muscarinic M1 receptor agonist with the potential to treat Alzheimer’s disease” (Cell, 2021).
Substitutions are numbered along the chain they refer to.

What was measured:
human M1 receptor [1] = target: T1, human M1 receptor (Homo sapiens, UniProt P11229); assay: Label-free dynamic mass redistribution in CHO cells overexpressing human M1-receptor; assay type: cell-based
T1 construct: expressed in transfected cells
T1 sequence (P11229 1-460): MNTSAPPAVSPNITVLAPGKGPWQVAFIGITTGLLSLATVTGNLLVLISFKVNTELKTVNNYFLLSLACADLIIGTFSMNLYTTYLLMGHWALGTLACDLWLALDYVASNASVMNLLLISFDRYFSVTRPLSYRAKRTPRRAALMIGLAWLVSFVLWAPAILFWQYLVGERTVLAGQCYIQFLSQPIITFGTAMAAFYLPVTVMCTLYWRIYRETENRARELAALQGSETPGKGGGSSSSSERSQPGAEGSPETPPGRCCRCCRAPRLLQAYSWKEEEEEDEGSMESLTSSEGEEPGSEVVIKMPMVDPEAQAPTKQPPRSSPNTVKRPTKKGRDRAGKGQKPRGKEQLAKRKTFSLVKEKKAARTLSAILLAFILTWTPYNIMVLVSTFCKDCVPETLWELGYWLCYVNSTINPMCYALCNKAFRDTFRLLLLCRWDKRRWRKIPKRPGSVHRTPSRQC

human M1 receptor [2] = target: T1, human M1 receptor; assay: Inositol phosphate (IP1) accumulation in CHO Flp-In cells; assay type: cell-based
[3] = target: T2, M1-receptor (Gq/11 protein-coupling) in cortical membranes (Mus musculus, UniProt P12657); assay: [35S]-GTPγS binding / Gq/11 protein-coupling in mouse cortical membranes; assay type: biochemical
T2 construct: Wild-type or M1-KO mice ([Bradley et al., 2017]) (8-12 weeks) were humanely killed and cortical tissue was dissected on ice; from tissue; host or cells: mouse cortex membranes
T2 sequence (P12657 1-460): T1 sequence (P11229 1-460) with A5V, T254S, R320K, A337G, I413V
Description: Wild-type or M1-KO mice ([Bradley et al., 2017]) (8-12 weeks) were humanely killed and cortical tissue was dissected on ice. Tissue was suspended in ice-cold buffer A (containing 0.9% (w/v) NaCl, 10 mM HEPES, 0.2% (w/v) EDTA, pH 7.4) and homogenized (4 ×5s bursts) using a Polytron homogenizer. The suspension was centrifuged at 200 xg for 5 min at 4°C using an Eppendorf 5810R bench-top centrifuge. Supernatants were collected and re-homogenized as above. The suspension was subsequently centrifuged for 20 min at 40,000 xg at 4°C using a Beckman Coulter Avanti JXN-26 centrifuge with a JA-25.25 rotor. Supernatant was discarded, and the pellet was re-suspended in 10 mL ice-cold buffer B (10 mM HEPES, 10 mM EDTA, pH 7.4). The pellet was homogenized, GTP (1 mM final) was added and the suspension was incubated at 37° C for 15 min. The suspension was subsequently centrifuged for 20 min at 40,000 xg at 4°C and the pellet was re-suspended in 15 mL ice-cold buffer C (10 mM HEPES, 0.1 mM EDTA, pH 7.4) and re-homogenized as before. Suspension was centrifuged again for 20 min at 40,000 xg at 4°C. The final pellet was re-suspended in buffer C and protein concentration was estimated using a Bradford assay and this resuspended homogenate further diluted in buffer C to produce a concentration of 2 mg/mL. This preparation is the membrane preparation used in the [^35S]-GTPγS binding assay described below.
[^35S]-GTPγS binding and immunoprecipitation of Gα subunits was performed as previously described ([Bradley et al., 2017]). Specifically, wild-type or M1-KO membranes were diluted in assay buffer (in mM: HEPES, 10; NaCI, 100; MgCl2, 10; pH 7.4) containing a final concentration of 1 μM GDP. Membranes (75 μg in a total assay volume of […]) were added to [^35S]-GTPγS (1 μM final concentration) and agonists (CCh or CNO) and incubated at 30°C for 5 min. Reactions were terminated by the addition of 1 mL ice-cold assay buffer and immediate transfer to an ice bath. […] Recovered beads were then mixed with 1 mL FloScint-IV scintillation cocktail and counted by liquid scintillation spectrometry.

C57BL/6J mice = assay: Scopolamine-induced deficit in contextual fear conditioning; assay type: in vivo, mouse; conditions: mice, 10, 30 or 100 mg/kg i.p. with scopolamine 1.5 mg/kg i.p.
Description: C57BL/6J male mice (aged 8−12 weeks) were acclimatized to the behavioral testing suite at least 2 hours prior to the test. […] Mice were placed in the conditioning chamber (ANY-maze Fear Conditioning System; Stoelting, Dublin, Ireland); after a 2-min adaptation period, they received three tone/foot shock pairings where the foot shock (un-conditioned stimulus; 2 s; 0.4 mA) always co-terminated with a tone (conditioned stimulus; 2.8 kH; 85 dB; 30 s). The conditioned stimulus−unconditioned stimulus pairings were separated by 1-min intervals. After the mice completed training, they remained in the conditioning chamber for 1 min and were then returned to their home cages. The next day, the mice were placed back in the conditioning chamber, and time spent immobile was recorded for 3 min to assess context-dependent learning. Data were analyzed using ANY-maze software (Stoelting).

non-human primates = assay: Safety clinical signs, non-human primates; assay type: in vivo

Q: What does the source list for `CCOC(=O)N1CCC[C@H](N2CCC(C(=O)NC3(C)CCC3)CC2)CC1` [HTL9936, ethyl (S)-4-(4-((1-methylcyclobutyl)carbamoyl)piperidin-1-yl)azepane-1-carboxylate]?
A: EC50 (human M1 receptor [1]): 79 nM; EC50 (human M1 receptor [2]): 631 nM; EC50 [3]: 2500 nM; Gq/11 protein-coupling Emax ([3]; cortical membranes, wild-type mice, n = 3): 76 % of the oxotremorine-M response; Gq/11 protein-coupling in M1-receptor KO membranes ([3]; membranes from M1-receptor KO animals): absent; Effect on scopolamine-induced fear learning deficit (C57BL/6J mice): dose-dependent restoration of learning and memory responses; Cu,pl without cholinergic clinical signs (non-human primates): 991 nM; Plasma exposure without cholinergic clinical signs (non-human primates): ≤ 557 ng/mL
